Laboratory results from PubChem BioAssay AID1919003 (Molecular Pharmacology Branch, DTP, NCI, 2023).
Where “and” joins values, the source holds several entries; their conditions need not be identical. Identical values can stand only once.

System: 786-0 complex spheroids with HUVEC/MSC, growth % test/control
Experiment: Anticancer human tumor 786-0 cell line growth inhibition [AhR];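 also: compound exposure lasted seven days before the read-out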
Conditions: for viability, T/C: stronger effect = lower value
Description: Multicellular complex tumor spheroid response to aryl hydrocarbon receptor antagonists in combination with a variety of drugs and investigational agents in selected tumor cell lines
The current study was undertaken to assess response to aryl hydrocarbon receptor antagonists in combination with standard-of-care drugs and investigational agents in solid tumor complex spheroid models. Complex spheroids include a stromal component modeled by human endothelial cells (HUVEC) and fibroblasts modeled by human mesenchymal stem cells (MSCs). The concentration ranges selected for each drug and investigational agent were based upon clinically achievable concentrations if the clinical Cmax of the agent was known.
Compounds. The drugs and investigational agents: BAY 2416964 (NSC825713), GNF351 (NSC835774), CH-223191 (NSC835775), CPI-455 (NSC825282), aza-TdCyd (NSC777586), decitabine (NSC127716), belinostat (NSC758774), entinostat (NSC756642), pevonedistat (NSC761192), tazemetostat (NSC777109), talazoparib (NSC765396), olaparib (NSC753686), selinexor (NSC780203), nedisertib (M3814, NSC802822), bortezomib (NSC756655), venetoclax (NSC766270), doxorubicin (NSC123127), elimusertib (BAY189344, NSC800525), ceralasertib (AZD6738, NSC777638), TAK-243 (NSC785004), alisertib (NSC759677), etoposide (NSC141540), topotecan (NSC609699), eribulin (NSC707389), gemcitabine (NSC613327), carboplatin (NSC241240), cisplatin (NSC119875), and SN-38 (NSC673596) were obtained from the National Cancer Institute (NCI) Developmental Therapeutics Program Chemical Repository (32). The FDA-approved anticancer drug set is available from the Developmental Therapeutics Program at https://dtp.cancer.gov/organization/dscb/obtaining/available plates.htm. […] The stock solutions were prepared in dimethyl sulfoxide (DMSO, Sigma-Aldrich, St. Louis, MO, cat. D2650), except for the platinum compounds which were prepared in saline (Quality Biological, Gaithersburg, MD, cat. 114-055-101), at 800-fold the tested concentration and stored at -70 degrees C prior to their use. All drugs and investigational agents were tested over a range starting from a high concentration at or near the clinical Cmax and decreasing in half-log increments. If the clinical Cmax for an agent had not been determined, the highest concentration tested was 10 microM (Table 1).
Cell Culture. All cells were maintained in an incubator at 37 degrees C and 5% CO2 with 95% humidity. The PDC lines were cultured according to standard operating procedures established by the NCI PDMR (https://pdmr.cancer.gov). Briefly, all PDCs were thawed and cultured in Matrigel-coated flasks prepared with a working solution of 1X Ham's F-12 nutrient mix, without supplementation (Invitrogen, Waltham, MA, cat. 11765054), 100 U/mL penicillin-streptomycin (Invitrogen, cat. 15140122), and 2.5% Matrigel (Corning Inc., Corning, NY, cat. 354248) for the first three passages. All PDCs were cultured in complete DMEM/F-12 media containing advanced DMEM/F-12 (Invitrogen, cat. 12634028), 4.9% defined fetal bovine serum, heat inactivated (HyClone Laboratories Inc., Logan, UT, cat. SH30070.03HI), 389 ng/mL hydrocortisone (Sigma-Aldrich, cat. H4001), 9.7 ng/mL human EGF recombinant protein (Invitrogen, cat. PHG0313), 23.4 microg/mL adenine (Sigma-Aldrich, cat. A2786), 97.3 U/mL penicillin-streptomycin (Invitrogen, cat. 15140122), 1.9 mM L-glutamine (Invitrogen, cat. 25030081), and 9.7 microM Y-27632 dihydrochloride (Tocris Bioscience, Bristol, United Kingdom, cat. 1254). The PDCs were cultured in complete DMEM/F12 media without 10 microM Y-27632 dihydrochloride for at least two passages prior to the screen. The established cell lines NCI-H1341 and […] were cultured in DMEM/F-12, HEPES (Invitrogen, cat. 11330032), 5% defined fetal bovine serum (HyClone Laboratories Inc., cat. SH30070.03), ITS premix universal culture supplement [insulin (5 microg/mL), transferrin (5 microg/mL), and selenious acid (5 ng/mL)] […]

COc1cccc2c1C(=O)c1c(O)c3c(c(O)c1C2=O)CC(O)(C(=O)CO)CC3OC1CC(N)C(O)C(C)O1 (configuration not stated)
viability, T/C (compound 0.0316 µM): 58.8% and 70% and 62% | viability, T/C (compound 0.1 µM): 51.9% and 65.6% and 44.9% | viability, T/C (compound 0.316 µM): 23.9% and 30.9% and 18.1% | viability, T/C (compound 1 µM): 7% and 10.7% and 3.15% | viability, T/C (compound 3.16 µM): 0.81% and 3.57% and 0.53% | viability, T/C (compound 10 µM): 0.36% and 3.07% and 0.69% | IC50 (curve of compound): 104 nM and 166 nM and 71.8 nM

Cc1ccccc1N=Nc1ccc(NC(=O)c2ccnn2C)c(C)c1
viability, T/C (compound 0.1 µM): 99.5% [middle of 20 runs] | viability, T/C (compound 0.316 µM): 99.1% [middle of 20 runs] | viability, T/C (compound 1 µM): 97.1% [middle of 20 runs] | IC50 (compound alone, run of 08/22/2022): > 10000 nM

Cc1cncc(-c2nc(NCCc3c[nH]c4ccccc34)c3ncn(C(C)C)c3n2)c1
viability, T/C (compound 0.1 µM): 114% [middle of 20 runs] | viability, T/C (compound 10 µM): 11.6% [middle of 20 runs] | IC50 (compound alone, run of 08/16/2022): 5.18 µM [middle of 23 runs]

Cn1ncnc1C1c2n[nH]c(=O)c3cc(F)cc(c23)NC1c1ccc(F)cc1 (configuration not stated)
viability, T/C (compound 0.000316 µM): 108% (2×) and 92.5% | viability, T/C (compound 0.001 µM): 104% and 108% and 105% | viability, T/C (compound 0.00316 µM): 110% and 104% and 100% | viability, T/C (compound 0.01 µM): 109% and 104% and 101% | viability, T/C (compound 0.0316 µM): 99.5% and 112% and 97.7% | viability, T/C (compound 0.1 µM): 106% and 108% and 102% | IC50 (curve of compound): > 100 nM

NS(=O)(=O)OCC1CC(n2ccc3c(NC4CCc5ccccc54)ncnc32)CC1O (configuration not stated)
viability, T/C (compound 0.0316 µM): 86.6% and 84.8% and 82.7% | viability, T/C (compound 0.1 µM): 82.9% and 78.3% and 70.6% | viability, T/C (compound 0.316 µM): 65.9% and 65% and 60.3% | viability, T/C (compound 1 µM): 28.2% and 41.9% and 20.8% | viability, T/C (compound 3.16 µM): 5.17% and 8.09% and 3.13% | viability, T/C (compound 10 µM): 3.31% and 4.15% and 1.12% | IC50 (curve of compound): 512 nM and 630 nM and 411 nM

Nc1ccccc1NC(=O)c1ccc(CNC(=O)OCc2cccnc2)cc1
viability, T/C (compound 0.0316 µM): 105% and 107% and 108% | viability, T/C (compound 0.1 µM): 102% and 106% and 113% | viability, T/C (compound 0.316 µM): 106% and 102% and 111% | viability, T/C (compound 1 µM): 113% and 108% and 114% | viability, T/C (compound 3.16 µM): 73.9% and 96.8% and 86.7% | viability, T/C (compound 10 µM): 25.2% and 36.6% and 21.4% | IC50 (curve of compound): 5560 nM and 7780 nM and 6040 nM

Nc1ccn(C2OC(CO)C(O)C2(F)F)c(=O)n1 (configuration not stated)
viability, T/C (compound 0.0316 µM): 5.98% and 8.17% and 4.44% | viability, T/C (compound 0.1 µM): 6.03% and 7.13% and 4.49% | viability, T/C (compound 0.316 µM): 4.27% and 6.35% and 5.28% | viability, T/C (compound 1 µM): 4.72% and 8.77% and 4.12% | viability, T/C (compound 3.16 µM): 4.82% and 7.86% and 5.09% | viability, T/C (compound 10 µM): 5.31% and 7.65% and 6.29% | IC50 (curve of compound): < 31.6 nM

Nc1ncn(C2CC(O)C(CO)O2)c(=O)n1 (configuration not stated)
viability, T/C (compound 0.00316 µM): 99.4% and 101% and 104% | viability, T/C (compound 0.01 µM): 102% and 81.5% and 104% | viability, T/C (compound 0.0316 µM): 98.7% and 88.8% and 106% | viability, T/C (compound 0.1 µM): 96.5% and 86% and 94.8% | viability, T/C (compound 0.316 µM): 81.5% and 69.4% and 93.1% | viability, T/C (compound 1 µM): 85.2% and 54.8% and 84.6% | IC50 (curve of compound): > 1000 nM

Nc1ncn(C2CC(O)C(CO)S2)c(=O)n1 (configuration not stated)
viability, T/C (compound 0.000949 µM): 109% and 99.9% and 112% | viability, T/C (compound 0.003 µM): 103% and 94.9% and 105% | viability, T/C (compound 0.00949 µM): 99.4% and 94.5% and 98.6% | viability, T/C (compound 0.03 µM): 102% and 107% and 100% | viability, T/C (compound 0.0949 µM): 73.2% and 96.8% and 89% | viability, T/C (compound 0.3 µM): 63.7% and 75.5% and 63.9% | IC50 (curve of compound): > 300 nM

O=C(C=Cc1cccc(S(=O)(=O)Nc2ccccc2)c1)NO
viability, T/C (compound 0.0316 µM): 104% and 102% and 97.4% | viability, T/C (compound 0.1 µM): 101% and 99.7% and 102% | viability, T/C (compound 0.316 µM): 101% and 103% and 102% | viability, T/C (compound 1 µM): 101% and 102% and 112% | viability, T/C (compound 3.16 µM): 75.2% and 93.4% and 85.6% | viability, T/C (compound 10 µM): 16.8% and 22.8% and 12.4% | IC50 (curve of compound): 5200 nM and 6410 nM and 5530 nM

O=C(C=Cn1cnc(-c2cc(C(F)(F)F)cc(C(F)(F)F)c2)n1)NNc1cnccn1
viability, T/C (compound 0.00949 µM): 106% (2×) and 101% | viability, T/C (compound 0.03 µM): 110% and 108% and 112% | viability, T/C (compound 0.0949 µM): 109% and 107% and 105% | viability, T/C (compound 0.3 µM): 66.8% and 69.5% and 52.4% | viability, T/C (compound 0.949 µM): 47.5% and 48.1% and 38.7% | viability, T/C (compound 3 µM): 20.5% and 24.1% and 16.9% | IC50 (curve of compound): 700 nM and 745 nM and 356 nM

O=C(c1cc(Cc2n[nH]c(=O)c3ccccc23)ccc1F)N1CCN(C(=O)C2CC2)CC1
viability, T/C (compound 0.0316 µM): 111% and 97.5% and 96.3% | viability, T/C (compound 0.1 µM): 104% and 99.7% and 103% | viability, T/C (compound 0.316 µM): 112% and 103% and 102% | viability, T/C (compound 1 µM): 108% and 109% and 104% | viability, T/C (compound 3.16 µM): 109% and 107% and 104% | viability, T/C (compound 10 µM): 107% and 98% and 91.6% | IC50 (curve of compound): > 10000 nM
